Assay [1] concerns the target T1, human recombinant P2X7 receptors (Homo sapiens, UniProt Q99572).
T1 construct: expressed in transfected cells
T1 sequence (Q99572 1-595): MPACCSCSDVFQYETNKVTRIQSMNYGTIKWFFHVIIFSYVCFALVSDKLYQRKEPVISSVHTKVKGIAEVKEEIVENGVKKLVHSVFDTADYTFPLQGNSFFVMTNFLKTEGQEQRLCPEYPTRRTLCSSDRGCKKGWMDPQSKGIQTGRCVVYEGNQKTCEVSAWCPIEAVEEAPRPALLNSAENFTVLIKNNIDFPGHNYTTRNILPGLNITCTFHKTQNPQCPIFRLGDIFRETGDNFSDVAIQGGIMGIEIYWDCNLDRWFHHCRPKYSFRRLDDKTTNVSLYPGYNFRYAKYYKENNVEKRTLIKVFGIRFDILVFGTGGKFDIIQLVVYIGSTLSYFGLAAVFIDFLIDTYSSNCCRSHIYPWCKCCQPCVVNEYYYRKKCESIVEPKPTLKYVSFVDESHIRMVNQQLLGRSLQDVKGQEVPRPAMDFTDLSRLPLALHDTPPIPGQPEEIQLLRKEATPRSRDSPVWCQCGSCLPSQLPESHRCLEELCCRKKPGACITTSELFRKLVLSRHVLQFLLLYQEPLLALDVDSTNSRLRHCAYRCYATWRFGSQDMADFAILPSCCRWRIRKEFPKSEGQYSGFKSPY
As to the kind of experiment: Ethidium Accumulation Assay 1. Format: cell-based. The note with it: HEK293 cells stably expressing human recombinant P2X7; 1 mM ATP; ethidium 100 μM; read-out: Assay 1 (antagonist pIC50 for blocking ATP responses, ethidium accumulation) (converted). As for the experimental part:
Studies were performed using NaCl assay buffer of the following composition: 140 mM NaCl, 10 mM HEPES [4-(2-hydroxyethyl)-1-piperazine-1-ethanesulfonic acid], 5 mM N-methyl-D-glucamine, 5.6 mM KCl, 10 mM D-glucose, 0.5 mM CaCl2 (pH 7.4).
Human Embryonic Kidney (HEK) 293 cells, stably expressing human recombinant P2X7 receptors, were grown in poly-D-lysine pretreated 96 well plates for 18-24 hours. […] The cells were washed twice with 350 μl of the assay buffer, before addition of 50 μl of the assay buffer containing the putative P2X7 receptor antagonist compound. (A small amount of dimethyl sulfoxide, for initially dissolving the compound, is optionally used and present in this […] test compound sample.) The cells were then incubated at room temperature (19-21° C.) for 30 min before addition of ATP and ethidium (100 μM final assay concentration). The ATP concentration was chosen to be close to the EC80 for the receptor type and was 1 mM for studies on the human P2X7 receptor. Incubations were continued for 8 or 16 min and were terminated by addition of 25 μl of 1.3M sucrose containing 4 mM of the P2X7 receptor antagonist Reactive Black 5 (Aldrich). […] Antagonist pIC50 values for blocking ATP responses were determined using iterative curve fitting techniques.

Assay [2] deals with T1, human recombinant P2X7 receptors. Description: Ethidium Accumulation Assay 2. In kind it is cell-based. The note with it: HEK293 cells stably expressing human recombinant P2X7; ATP solution with ethidium bromide; 16 min incubation; read-out: Assay 2 (antagonist pIC50 for blocking ATP responses, ethidium accumulation) (converted). The procedure: Human Embryonic Kidney (HEK) 293 cells, stably expressing human recombinant P2X7 receptors, were grown in poly-D-lysine pretreated 96 well plates for 24 hours at 37° C.
The cells were washed with assay buffer (100 μL), before addition of 25 μL of assay buffer and then 25 ul of assay buffer containing the putative P2X7 receptor antagonist compound. The cells were then incubated at room temperature (19-21° C.) for 30 min before addition of ATP solution (50 μM). […] Antagonist pIC50 values for blocking ATP responses were determined using iterative curve fitting techniques.

Where a name gives a salt, the structure may show the parent alone.

On to `O=C(c1cccc(C(F)(F)F)c1Cl)N1CCn2ccnc2C1` [Example 1, 7-{[2-Chloro-3-(trifluoromethyl)phenyl]carbonyl}-5,6,7,8-tetrahydroimidazo[1,2-a]pyrazine], for which the IC50 in assay [1] and in assay [2] was below 100 nM in each case.

For the compound `Cc1cnc2n1CCN(C(=O)c1cccc(C(F)(F)F)c1Cl)C2` [Example 27, 7-{[2-Chloro-3-(trifluoromethyl)phenyl]carbonyl}-3-methyl-5,6,7,8-tetrahydroimidazo[1,2-a]pyrazine hydrochloride], the IC50 in assay [1] and in assay [2] was below 100 nM each time.

As for `O=C(c1cccc(C(F)(F)F)c1Cl)N1CCn2cc(C(F)(F)F)nc2C1` [Example 2, 7-{[2-Chloro-3-(trifluoromethyl)phenyl]carbonyl}-2-(trifluoromethyl)-5,6,7,8-tetrahydroimidazo[1,2-a]pyrazine], the IC50 in assay [1] and in assay [2] was below 100 nM in each case.

The record behind these values is patent US8513248B2, “5,6,7,8-tetrahydroimidazo[1,2-A]pyrazine derivatives as P2X7 modulators” (Glaxo Group Limited, priority 2009, dated 2013).
